Experimental data: US20260226048A1, “MULTI-CYCLIC IRAK AND FLT3 INHIBITING COMPOUNDS AND USES THEREOF” (CHILDREN'S HOSPITAL MEDICAL CENTER, priority 2023, published 2026)
Where two headings read alike, the source gives them in different places.

Tests used:
[1] = test system: NF-κB-inducible SEAP reporter in THP-1-Blue NF-κB cells; assay: NF-kB SEAP reporter assay in THP-1-Blue NF-κB cells; assay type: cell-based; details: 24 hours
Method in brief: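 Cells (1×10^5/well) stimulated with Pam3CSK4 (1 ng/mL) or hIL1B (1 ng/mL), then after 10-20 min given 10-point 1:10 compound dilutions from 1 μM or 3 μM for 24 h at 37° C. Secreted SEAP in supernatant read with QUANTI-Blue (30-60 min, 37° C) at 620 nm.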

MOLM14 D835Y cells = assay: MOLM14 D835Y cell viability assay (Cell Titer Glo); assay type: cell-based; details: Homo sapiens, MOLM-14, 48 h, cell viability, Cell Titer Glo, 48 hours; read-out: MOLM14 D835Y IC50
Method in brief: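 MOLM14 cells with FLT3 D835Y or F691L kinase-domain resistance mutations seeded at 1000 cells/well and exposed to compound for 48 h under standard incubator conditions. Viability read by CellTiter-Glo luminescence after 15 min at room temperature.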

[2] = THP-1-Blue NF-κB cells stimulated with Pam3CSK4 (1 ng/mL), read-out: NF-κB Pam3SCK4 IC50
[3] = THP-1-Blue NF-κB cells stimulated with hIL1B (1 ng/mL), read-out: NF-κB IL1B IC50

Row | SMILES | IC50 [1, 2] [µM] | IC50 [1, 3] [µM] | IC50 (MOLM14 D835Y cells) [µM]
1 | COc1cc2ncc(-c3nc(N[C@@H]4CCCNC4)ncc3F)n2nc1C1CC2(CCC2)C1 [Compound 59a, (R)-5-fluoro-4-(7-methoxy-6-(spiro[3.3]heptan-2-yl)imidazo[1,2-b]pyridazin-3-yl)-N-(piperidin-3-yl)pyrimidin-2-amine] | 0.25 | 0.323 | 0.007
2 | COc1cc2ncc(-c3nc(N[C@H]4CNCC[C@@H]4F)ncc3F)n2nc1C1CC2(CCC2)C1 [Compound 60a, 5-fluoro-N-((3S,4S)-4-fluoropiperidin-3-yl)-4-(7-methoxy-6-(spiro[3.3]heptan-2-yl)imidazo[1,2-b]pyridazin-3-yl)pyrimidin-2-amine] | 0.156 | 0.2 | 0.011
